A word on the melting point: it is the temperature of the solid-liquid transition.

Where a name gives a salt, the structure may show the parent alone.

`Cc1ccc(-c2ccc3c(c2)-n2nc(-c4ccccc4)cc2C(=O)N(C)C32CC2)c(C)n1` (as salt: hydrochloride) [Example 126, 9-(2,6-Dimethyl-pyridin-3-yl)-5-methyl-2-phenyl-spiro[benzo[f]pyrazolo[1,5-a][1,4]diazepine-6,1′-cyclopropan]-4(5H)-one]: the melting point is over 250 °C.
`CN1C(=O)c2cc(-c3ccccc3)nn2-c2cc(-c3ccc(N)nc3)ccc2C12CC2` (as salt: hydrochloride) [Example 127, 9-(6-Amino-pyridin-3-yl)-5-methyl-2-phenyl-spiro[benzo[f]pyrazolo[1,5-a][1,4]diazepine-6,1′-cyclopropan]-4(5H)-one] displayed a melting point of over 250 °C.
Take `Cc1ncccc1-c1ccc2c(c1)-n1cc(-c3ccccc3)nc1C(=O)N(C)C21CC1` (as salt: hydrochloride) [Example 140, 9-(2-Methyl-pyridin-3-yl)-5-methyl-2-phenyl-spiro[benzo[f]imidazo[1,2-a][1,4]diazepine-6,1′-cyclopropan]-4(5H)-one]: the melting point was 235 to 240 °C.
`Cc1ncccc1-c1ccc2c(c1)-n1cc(-c3cccnc3)cc1C(=O)N(C)C21CC1` (as salt: hydrochloride) [Example 143] gave a melting point of over 250 °C.
In turn, `Cc1cc2n(c1)-c1cc(-c3cccnc3C)ccc1C1(CC1)N(C)C2=O` (as salt: hydrochloride) [Example 144] registered a melting point of 162 to 175 °C.
`Cc1ncccc1-c1ccc2c(c1)-n1cc(-c3ccncc3)cc1C(=O)N(C)C21CC1` (as salt: hydrochloride) [Example 145]: the melting point is over 250 °C.
Consider `Cc1ncccc1-c1ccc2c(c1)-n1cc(-c3cc[nH]n3)cc1C(=O)N(C)C21CC1` (as salt: hydrochloride) [Example 146], for which the melting point was in the range of 240 to 250 °C.
For the compound `Cc1ncccc1-c1ccc2c(c1)-n1cc(-c3ccc(F)cc3)cc1C(=O)N(C)C21CC1` (as salt: hydrochloride) [Example 150], the melting point was in the range of 226 to 230 °C.
`Cc1ncccc1-c1ccc2c(c1)-n1cc(-c3ccccc3F)cc1C(=O)N(C)C21CC1` (as salt: hydrochloride) [Example 151] showed a melting point of 185 to 190 °C.
In turn, `Cc1ncccc1-c1ccc2c(c1)-n1cc(-c3cccc(F)c3)cc1C(=O)N(C)C21CC1` (as salt: hydrochloride) [Example 152] gave a melting point of 183 to 190 °C.
`Cc1ncccc1-c1ccc2c(c1)-n1cc(N(C)C)cc1C(=O)N(C)C21CC1` (as salt: hydrochloride) [Example 154] displayed a melting point of 120 to 134 °C.
The compound `Cc1ncccc1-c1ccc2c(c1)-n1cc(C3CC3)cc1C(=O)N(C)C21CC1` (as salt: hydrochloride) [Example 155] registered a melting point of 190 to 198 °C.
Take `Cc1ncccc1-c1ccc2c(c1)-n1cc(C3CCCC3)cc1C(=O)N(C)C21CC1` (as salt: hydrochloride) [Example 156]: the melting point was in the range of 230 to 235 °C.
Consider `Cc1ncccc1-c1ccc2c(c1)-n1cc(-c3nccs3)cc1C(=O)N(C)C21CC1` (as salt: hydrochloride) [Example 157], for which the melting point was in the range of 240 to 245 °C.
In turn, `Cc1ccc(-c2ccc3c(c2)-n2cc(-c4nccs4)cc2C(=O)N(C)C32CC2)cn1` (as salt: hydrochloride) [Example 158] showed a melting point of 228 to 239 °C.
In the case of `Cc1ccc(-c2ccc3c(c2)-n2cc(-c4ccnn4C)cc2C(=O)N(C)C32CC2)cn1` (as salt: hydrochloride) [Example 159], the melting point is 187 to 194 °C.
Compound `Cc1ncccc1-c1ccc2c(c1)-n1cc(-c3ccnn3C)cc1C(=O)N(C)C21CC1` (as salt: hydrochloride) [Example 160] had a melting point of 229 to 237 °C.
For `CCc1ncccc1-c1ccc2c(c1)-n1cc(-c3ccccc3F)cc1C(=O)N(C)C21CC1` (as salt: hydrochloride) [Example 162], the melting point lay within 189 to 195 °C.

For the origin of these results see patent US11008323B2, “Substituted tricyclic 1,4-benzodiazepinone derivatives as allosteric modulators of group II metabotropic glutamate receptors” (Domain Therapeutics, priority 2015, dated 2021).
